Earlier results on eleven compounds are cited in patent US6344218B1, “Skin deodorizing and santizing compositions” (The Procter & Gamble Company, priority 1998, dated 2002).

SMILES strings stand for the structures. Counter-ions that a name gives are not always drawn.

Take `OCCOc1ccccc1` [2-phenoxyethanol]: the solubility in water result was “about 2.67%”. On to `OCCc1ccccc1` [2-phenylethanol], for which the solubility in water entry was “about 2%”. Consider `O=[N+]([O-])C1(Br)COCOC1` [Bronidox L, 5-bromo-5-nitro-1,3-dioxane], for which the solubility in water entry is listed as “about 0.46%”. As to `O=[N+]([O-])C(Br)(CO)CO` [Bronopol, 2-bromo-2-nitropropane-1,3-diol], the solubility in water entry was “about 25%”. For the compound `CC1(C)C(=O)N(CO)C(=O)N1CO` [DMDM hydantoin, 1,3-bis(hydroxymethyl)-5,5-dimethyl-2,4-imidazolidinedione], the solubility in water entry is “more than 50%”. `ClC=CC[N+]12CN3CN(CN(C3)C1)C2.[Cl-]` [Dowicil 200, 1-(3-Chlorallyl)-3,5,7-triaza-1-azoniaadamantane chloride]: the “solubility in water” value is “freely soluble in water”. For the compound `OCc1ccccc1` [benzyl alcohol], the solubility in water entry is recorded as “about 4%”.

`CC(C)(O)C(Cl)(Cl)Cl` [chlorobutanol, 1,1,1-Trichloro-2-methylpropan-2-ol]: the solubility in water entry was “about 0.8%”. For `[H]/N=C(\N/C(=N/[H])NCCCCCCNC(=N)NC(=N)Nc1ccc(Cl)cc1)Nc1ccc(Cl)cc1` [diacetate salt, 1,1′-hexamethylene bis(5-(p-chlorophenyl)biguanide), reference compound], the solubility in water entry is reported as “about 1.8%”.

On to `[H]/N=C(\N/C(=N/[H])NCCCCCCNC(=N)NC(=N)Nc1ccc(Cl)cc1)Nc1ccc(Cl)cc1` [digluconate salt, 1,1′-hexamethylene bis(5-(p-chlorophenyl)biguanide), reference compound], for which the solubility in water result was “about 70%”. Regarding `[Na+].[O-][n+]1ccccc1[S-]` [sodium pyrithione], the solubility in water entry was “about 50%”.
